Measurements: ChEMBL document CHEMBL3751786, “Toxocara canis: Larvicidal activity of fatty acid amides” (Bioorg Med Chem Lett, 2016)
Activity calls are given as the source filed them. The calls are words filed in the database; no cut-off is given here.

Assays:
Toxocara canis [1] = assay: Larvicidal activity against Toxocara canis larvae infected in BALB/c mouse at 1 mg/ml after 12 hrs; format: functional
Toxocara canis [2] = assay: Larvicidal activity against Toxocara canis larvae at 1 mg/ml after 48 hrs by trypan blue assay relative to control; format: functional
Toxocara canis [3] = assay: Larvicidal activity against Toxocara canis larvae infected in BALB/c mouse at 40 mg/kg after 12 hrs; format: functional, organism-based
[4] = Cytotoxicity against C57BL/6 mouse peritoneal macrophages at 0.025 to 0.05 mg/ml after 48 hrs by MTT assay; format: cell-based, Peritoneal macrophage cell; settings: read-out: MLC
Toxocara canis [5] = assay: Larvicidal activity against Toxocara canis larvae infected in BALB/c mouse at 0.05 mg/ml after 12 hrs; format: functional
[6] = Cytotoxicity against C57BL/6 mouse peritoneal macrophages at 0.025 to 0.05 mg/ml after 48 hrs by LDH release assay; format: cell-based; settings: peritoneal macrophage cell

Row | SMILES | Activity (Toxocara canis [1]) | Activity (Toxocara canis [2]) [%] | Activity (Toxocara canis [3]) | MCC at 48 h [4] [µg/mL] | Activity (Toxocara canis [5]) | Activity [6] [%]
1 | CCCCC/C=C\C/C=C\CCCCCCCC(=O)N[C@@H](C)c1ccccc1 | Active | 100 | – | – | – | –
2 | CCCCCCCC/C=C\CCCCCCCC(=O)N[C@@H](C)c1ccccc1 | Active | 100 | – | – | – | –
3 | CCCCCC[C@@H](O)C/C=C\CCCCCCCC(=O)NN1CCOCC1 | Active | 100 | – | – | – | –
4 | CCCCC/C=C\C/C=C\CCCCCCCC(=O)N[C@H](C)c1ccccc1 | Active | 100 | – | – | – | –
5 | CCCCCCCCCCCCCCCCCC(=O)N[C@H](C)c1ccccc1 | Active | 100 | – | – | – | –
6 | CCCCCC[C@@H](O)C/C=C\CCCCCCCC(=O)N[C@@H](C)c1ccccc1 | Active | 100 | – | – | – | –
7 | CCCCCC[C@@H](O)C/C=C\CCCCCCCC(=O)NCc1ccccc1 | Active | 100 | – | – | – | –
8 | CCCSc1ccc2[nH]c(NC(=O)OC)nc2c1 [ALBENDAZOLE] | – | 100 | Active | – | – | –
9 | CCCCCC[C@@H](O)C/C=C\CCCCCCCC(=O)NN1CCCC1 | Active | 100 | – | – | – | –
10 | CCCCCCCCCCCCCCCCCC(=O)N[C@@H](C)c1ccccc1 | Active | 100 | – | – | – | –
11 | CCCCCCCC/C=C\CCCCCCCC(=O)NN1CCOCC1 | Active | 100 | – | – | – | –
12 | CCCCCCCC/C=C\CCCCCCCC(=O)N[C@H](C)c1ccccc1 | Active | 100 | – | – | – | –
13 | CCCCCC[C@@H](O)C/C=C\CCCCCCCC(=O)N[C@H](C)c1ccccc1 | Active | 100 | – | – | – | –
14 | CCCCCCCC/C=C\CCCCCCCC(=O)NC(C)c1ccccc1 (centres undefined) | Active | 100 | – | – | – | –
15 | CCCCCCCCCCCCCCCC(=O)N[C@H](C)c1ccccc1 | Active | 100 | – | – | – | –
16 | CCCCC/C=C\C/C=C\CCCCCCCC(=O)NN1CCCC1 | – | 100 | – | 50 | Active | 27
